Test results taken from publication PMC6359284, “Identification, Characterization, and Optimization of Integrin αvβ6-Targeting Peptides from a One-Bead One-Compound (OBOC) Library: Towards the Development of Positron Emission Tomography (PET) Imaging Agents” (Molecules, 2019).
Values joined by “and” are separate entries in the source; they are usually repeats but may differ in a detail not shown here. Identical values can stand only once. Like-named read-outs stand apart in the source and are kept apart here. Square brackets hold non-standard residues; d marks the D form. Primed or numbered codes have the meaning given here. Ends that are not written are not given here. Peptide text beside a SMILES is read from it. * marks the point of attachment. (18F)FB = 4-[18F]fluorobenzoyl, radiolabelled form of FB, O=C(c1ccc([18F])cc1)*; PEG12 = NCCOCCOCCOCCOCCOCCOCCOCCOCCOCCOCCOCCOCCC(=O)O; Benzoyl(4-F) = O=C(c1ccc(F)cc1)*; PEG28′ = not defined here

Experiments:
integrin αvβ6 = molecular target: T1, integrin αvβ6 (Homo sapiens, UniProt P06756+P18564); test: Competitive binding ELISA, purified integrin αvβ6; conditions: for selectivity ratio for integrin αvβ6 compared to αvβ5: from ELISA IC50 values
T1 construct: purchased R&D Systems
Method: (§1) Competitive binding ELISAs were performed to evaluate the binding affinity of each peptide relative to each integrin’s biotinylated natural ligand (transforming growth factor beta 1 latency-associated peptide or TGFβ1-LAP (G&P Biosciences, Santa Clara, CA, USA) for integrins αvβ6 and αvβ8, fibronectin (Thermo Fisher, Waltham, MA, USA) for integrin αvβ1, and vitronectin (Thermo Fisher) for integrins αvβ3 and αvβ5), as previously described. In brief, anti-αv antibody (P2W7, 5 μg/mL, Abcam) was plated (50 μL/well) at 37 °C for 1 h, washed with PBS (3×), and blocked overnight with blocking buffer (300 μL/well, 5% bovine serum albumin (BSA), 1% Tween 20, in PBS), followed by washing with PBS (3×). […] The plate was incubated at 37 °C for 1 h, then washed with wash buffer (3×). A 1:1000 dilution of ExtrAvidin Horseradish Peroxidase (HRP) was added to each well (50 μL/well), incubated at 37 °C for 1 h, and then washed with wash buffer (3×). The ExtrAvidin HRP was detected with 3,3′,5,5′-tetramethylbenzidine (50 μL/well, Promega, Madison, WI, USA) for 10–15 min at room temperature. The reaction was stopped by adding 1N H2SO4 (50 μL/well) and the absorbance was measured in a Multiscan Ascent plate reader (Thermo Fisher) at 450 nm. Half-maximal inhibitory concentration (IC50) of peptides was determined fitting to sigmoidal dose-response model in GraphPad Prism 5.0 (San Diego, CA, USA).

integrin αvβ8 = molecular target: T2, integrin αvβ8 (Homo sapiens, UniProt P06756+P26012); test: Competitive binding ELISA, purified integrin αvβ8; conditions: competitive ELISA vs biotinylated TGFβ1-LAP, n = 3
T2 construct: purchased R&D Systems
Method: as §1

DX3puroβ6 (αvβ6+) cells = test: 18F-radiolabeled peptide cell binding assay, αvβ6+ cells; type: cell-based; conditions: 60 min incubation at 37 °C, n = 3
Method: (§2) Cell binding assay was performed as previously described. […] The ^18F-radiolabeled peptide was prepared in a stock solution of 148 kBq in 1 mL PBS (pH 7.2). Aliquots of each ^18F-radiolabeled peptide (50 μL, 7.4 kBq per sample) were added to each cell sample and incubated at 37 °C for 1 h with frequent suspension. After incubation, each sample was centrifuged and the supernatant was collected. The cell pellet was washed with 500 μL PBS, centrifuged, and the supernatant was combined with the previously collected supernatant samples. The cell pellet was resuspended in 600 μL PBS and transferred to gamma counter tubes. All pellet and supernatant samples were measured in a Wizard 1470 gamma counter (Perkin Elmer, Waltham, MA, USA). Cell binding percentage for each cell line was calculated as the radioactivity associated, with pellet divided by the total radioactivity associated with both the pellet and supernatant.

DX3puro (αvβ6−) cells = test: 18F-radiolabeled peptide cell binding assay, αvβ6− cells; type: cell-based; conditions: 60 min incubation at 37 °C, n = 3
Method: as §2

integrin αvβ3 = molecular target: T3, integrin αvβ3 (Homo sapiens, UniProt P05106+P06756); test: Competitive binding ELISA, purified integrin αvβ3; conditions: competitive ELISA vs biotinylated vitronectin, n = 3
T3 construct: purchased R&D Systems
Method: as §1

[1] = Serum stability assay in mouse serum; type: in vitro ADME; conditions: 37 °C, radio-RP-HPLC
Method: Peptide stability was evaluated in mouse serum as previously described. In brief, formulated ^18F-radiolabeled peptide (~3.7 MBq in PBS) was incubated with mouse serum (500 μL, Sigma Aldrich, St. Louis, MO) at 37 °C for 1 h.

[2] = competitive ELISA vs biotinylated TGFβ1-LAP, n = 3, read-out: IC50 (μM) αvβ6

Compound | % binding to DX3puroβ6 (αvβ6+) cells (DX3puroβ6 (αvβ6+) cells) | % binding to DX3puro (αvβ6−) cells (DX3puro (αvβ6−) cells) | IC50 (integrin αvβ6; [2]) | % Intact (1 h) [1] | other results
CC(C)C[C@H](NC(=O)[C@H](Cc1ccc(O)cc1)NC(=O)[C@@H](NC(=O)[C@H](CC(C)C)NC(=O)[C@H](CC(=O)O)NC(=O)CNC(=O)[C@@H](N)C(C)C)[C@@H](C)O)C(=O)N[C@@H](CCCCN)C(=O)N[C@@H](CCCCNC(=O)c1ccc(F)cc1)C(N)=O [compound 1] (H-VGDLTYLKK(Benzoyl(4-F))-NH2; N-terminus assumed) |  |  |  |  | selectivity ratio for integrin αvβ6 compared to the other integrins (αvβ1, αvβ3, and αvβ5) (integrin αvβ6): > 200 :1; IC50 (integrin αvβ6; read-out: IC50 (μM) αvβ6): 0.45 ± 0.06 µM; IC50 (integrin αvβ8): 5.3 ± 0.14 µM
[^18F]FB-PEG28-A20FMDV2-K16R-PEG28 [reference compound] | 77.1 ± 0.1% | 1.5 ± 0.1% |  |  | 
CC(C)C[C@H](NC(=O)[C@H](Cc1ccc(O)cc1)NC(=O)[C@@H](NC(=O)[C@H](CC(C)C)NC(=O)[C@H](CC(=O)O)NC(=O)CNC(=O)[C@@H](NC(=O)c1ccc(F)cc1)C(C)C)[C@@H](C)O)C(=O)N[C@@H](CCCCN)C(=O)N[C@@H](CCCCN)C(N)=O [1a] ({Benzoyl(4-F)}-VGDLTYLKK-NH2) |  |  | 0.81 ± 0.09 µM |  | 
CC[C@H](C)[C@H](NC(=O)CN)C(=O)N[C@@H](CC(=O)O)C(=O)N[C@@H](CC(C)C)C(=O)N[C@H](C(=O)N[C@@H](CO)C(=O)N[C@@H](CC(C)C)C(=O)N[C@H](C(=O)N[C@@H](CCCCNC(=O)c1ccc(F)cc1)C(N)=O)[C@@H](C)O)[C@@H](C)O [compound 4] (H-GIDLTSLTK(Benzoyl(4-F))-NH2; N-terminus assumed) |  |  | > 100 µM |  | IC50 (integrin αvβ3): > 100 µM
CC(C)C[C@H](NC(=O)[C@H](Cc1ccc(O)cc1)NC(=O)[C@@H](NC(=O)[C@H](CC(C)C)NC(=O)[C@H](CC(=O)O)NC(=O)CNC(=O)[C@@H](NC(=O)CCOCCOCCOCCOCCOCCOCCOCCOCCOCCOCCOCCOCCN)C(C)C)[C@@H](C)O)C(=O)N[C@@H](CCCCN)C(=O)N[C@@H](CCCCNC(=O)c1ccc(F)cc1)C(N)=O [1d] (H-[PEG12]VGDLTYLKK(Benzoyl(4-F))-NH2; N-terminus assumed) |  |  | > 100 µM |  | 
CN[C@H](C(=O)NCC(=O)N[C@@H](CC(=O)O)C(=O)N[C@@H](CC(C)C)C(=O)N[C@H](C(=O)N[C@@H](Cc1ccc(O)cc1)C(=O)N[C@@H](CC(C)C)C(=O)N[C@@H](CCCCN)C(=O)N[C@@H](CCCCNC(=O)c1ccc(F)cc1)C(N)=O)[C@@H](C)O)C(C)C [1c] |  |  | > 5 µM |  | 
CC(C)C[C@H](NC(=O)[C@H](CC(=O)O)NC(=O)CNC(=O)[C@@H](N)CCCNC(=N)N)C(=O)N[C@@H](C)C(=O)N[C@@H](CC(=O)O)C(=O)N[C@@H](CC(C)C)C(=O)N[C@@H](CCCNC(=N)N)C(=O)N[C@@H](CCCCNC(=O)c1ccc(F)cc1)C(N)=O [compound 3] (H-RGDLADLRK(Benzoyl(4-F))-NH2; N-terminus assumed) |  |  |  |  | selectivity ratio for integrin αvβ6 compared to αvβ5 (integrin αvβ6): > 100 :1
CC(=O)N[C@H](C(=O)NCC(=O)N[C@@H](CC(=O)O)C(=O)N[C@@H](CC(C)C)C(=O)N[C@H](C(=O)N[C@@H](Cc1ccc(O)cc1)C(=O)N[C@@H](CC(C)C)C(=O)N[C@@H](CCCCN)C(=O)N[C@@H](CCCCNC(=O)c1ccc(F)cc1)C(N)=O)[C@@H](C)O)C(C)C [1b] |  |  | > 100 µM |  | 
CC(C)C[C@H](NC(=O)[C@H](Cc1ccc(O)cc1)NC(=O)[C@@H](NC(=O)[C@H](CC(C)C)NC(=O)[C@H](CC(=O)O)NC(=O)CNC(=O)[C@@H](NC(=O)c1ccc(F)cc1)C(C)C)[C@@H](C)O)C(=O)N[C@@H](CCCCN)C(=O)N[C@@H](CCCCNC(=O)c1ccc(F)cc1)C(N)=O [1e] |  |  | 0.84 ± 0.36 µM |  | 
VGDLTYLKK([^18F]FB) (VGDLTYLKK((18F)FB)-NH2) [[^18F]1] | 12.8 ± 1.9% | 11.7 ± 2.2% |  | 25% | 
VGDLTYLKK([^18F]FB)-PEG28 (VGDLTYLKK((18F)FB)[PEG28′]) [[^18F]1f] | less than 2% | less than 2% |  | > 95% and 95% | 
CC(=O)N[C@H](C(=O)NCC(=O)N[C@@H](CC(=O)O)C(=O)N[C@@H](CC(C)C)C(=O)N[C@H](C(=O)N[C@@H](Cc1ccc(O)cc1)C(=O)N[C@@H](CC(C)C)C(=O)N[C@@H](CCCCN)C(=O)N[C@@H](CCCCNC(=O)c1ccc(F)cc1)C(=O)NCCOCCOCCOCCOCCOCCOCCOCCOCCOCCOCCOCCOCCOCCOCCOCCOCCOCCOCCOCCOCCOCCOCCOCCOCCOCCOCCOCCOCCC(N)=O)[C@@H](C)O)C(C)C [1g] |  |  | > 100 µM |  | 
RGDLADLRK([^18F]FB) (RGDLADLRK((18F)FB)) [[^18F]3] | 7.7 ± 3.8% | 5.3 ± 2.8% |  | 0% | 
[^18F]FB-VGDLTYLKK ({(18F)FB}-VGDLTYLKK-NH2) [[^18F]1a] | less than 2% | less than 2% |  |  | 
CSCC[C@H](NC(=O)[C@H](CC(C)C)NC(=O)[C@H](CC(=O)O)NC(=O)CNC(=O)[C@@H](N)CCCNC(=N)N)C(=O)N[C@@H](CCCCN)C(=O)N[C@@H](CC(C)C)C(=O)N[C@@H](C)C(=O)N[C@@H](CCCCNC(=O)c1ccc(F)cc1)C(N)=O [compound 2] (H-RGDLMKLAK(Benzoyl(4-F))-NH2; N-terminus assumed) |  |  |  |  | IC50 (integrin αvβ6): 0.95 ± 0.17 µM; selectivity ratio for integrin αvβ6 compared to αvβ5 (integrin αvβ6): > 100 :1; IC50 (integrin αvβ8): 2.6 ± 0.35 µM
RGDLRELAK([^18F]FB) (RGDLRELAK((18F)FB)) [[^18F]5] | 6.4 ± 0.1% | 5.9 ± 0.8% |  | 0% | 
CC(C)C[C@H](NC(=O)[C@H](Cc1ccc(O)cc1)NC(=O)[C@@H](NC(=O)[C@H](CC(C)C)NC(=O)[C@H](CC(=O)O)NC(=O)CNC(=O)[C@@H](NC(=O)c1ccc(F)cc1)C(C)C)[C@@H](C)O)C(=O)N[C@@H](CCCCN)C(=O)N[C@@H](CCCCNC(=O)c1ccc(F)cc1)C(=O)NCCOCCOCCOCCOCCOCCOCCOCCOCCOCCOCCOCCOCCOCCOCCOCCOCCOCCOCCOCCOCCOCCOCCOCCOCCOCCOCCOCCOCCC(N)=O [1h] | < 2% |  | 1.47 ± 0.23 µM | > 95% | 
FB-VGDLTYLKK([^18F]FB)-PEG28 ({Benzoyl(4-F)}-VGDLTYLKK((18F)FB)[PEG28′]) [[^18F]1h] | less than 2% | less than 2% |  | > 95% and 95% | 
CC(C)C[C@H](NC(=O)[C@H](Cc1ccc(O)cc1)NC(=O)[C@@H](NC(=O)[C@H](CC(C)C)NC(=O)[C@H](CC(=O)O)NC(=O)CNC(=O)[C@@H](N)C(C)C)[C@@H](C)O)C(=O)N[C@@H](CCCCN)C(=O)N[C@@H](CCCCNC(=O)c1ccc(F)cc1)C(=O)NCCOCCOCCOCCOCCOCCOCCOCCOCCOCCOCCOCCOCCOCCOCCOCCOCCOCCOCCOCCOCCOCCOCCOCCOCCOCCOCCOCCOCCC(N)=O [1f] | < 2% |  | 3.7 ± 1 µM | > 95% | 
VGDLTYLKK([^18F]FB)KVART [[^18F]1i] | 5.0 ± 0.5% |  |  | > 99% and 99% | 
